According to patent US11370785B2, “Multicyclic compounds as farnesoid X receptor modulators” (BRISTOL-MYERS SQUIBB COMPANY, priority 2017, dated 2022):

biological target: T1, human FXR (Homo sapiens, UniProt Q96RI1); test: transient human FXR/Gal4-luciferase reporter assay; format: cell-based; details: Gal4-hFXR reporter in HEK293 cells; read-out: HLE GAL-FXR EC50
T1 construct: expressed in transfected cells; host or cells: HEK293 cells stably carrying a 5xGal4-response-element firefly luciferase reporter, transiently transfected with the pcDNA3.1-Gal4-FXR plasmid
T1 sequence (Q96RI1 262-486 limits assumed): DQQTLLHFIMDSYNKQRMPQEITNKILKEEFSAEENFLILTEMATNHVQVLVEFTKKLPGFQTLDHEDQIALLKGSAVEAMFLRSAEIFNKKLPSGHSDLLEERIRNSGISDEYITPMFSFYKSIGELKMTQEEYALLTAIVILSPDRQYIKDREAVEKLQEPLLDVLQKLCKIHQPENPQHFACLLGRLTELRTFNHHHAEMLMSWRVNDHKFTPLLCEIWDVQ
Procedure: The exemplified compounds of the present invention were tested in the transient human FXR/Gal4-luciferase reporter assay, and assay results were reported in Table 1 together with other analytical data.
A Gal4-hFXR fusion construct reporter system was used as the primary assay to characterize compound activity. A construct including 5 copies of the Gal4 promoter response element upstream of a firefly luciferase reporter cDNA was stably expressed in HEK293 cells. This reporter cell line was maintained in Dulbecco's Modified Eagle's medium (DMEM; Gibco) supplemented with 1% penicillin-streptomycin (P/S) solution, 500 μg/mL Zeocin and 10% charcoal/dextran-treated fetal bovine serum (cs-FBS) at 37° C. in a humidified 5% CO2 atmosphere. Another plasmid was constructed in which the human cytomegalovirus promoter in the pcDNA3.1 vector directs the expression of the cDNA encoding a fusion protein comprised of the DNA binding domain from the Gal4 transcription factor fused to the ligand binding domain from human FXR.
The day prior to transfection, the reporter cells in culture are detached from the plate with trypsin and plated into a T75 flask at a sufficient density to achieve approximately 90% confluence the next morning. The transfection reagents are prepared by separately diluting 25 μg of the pcDNA3.1-Gal4-FXR plasmid into 1.87 mL of Opti-MEM (Thermo-Fisher), and 40 μL of Lipofectamine 2000 (Thermo-Fisher) into 1.87 mL of Opti-MEM, and then adding the diluted DNA solution into the diluted Lipofectamine 2000 solution and incubating at room temperature for 15-20 minutes. The mixture is further diluted with 10 mL of a solution comprised of DMEM, 10% cs-FBS, and 1% P/S immediately prior to transferring to the cells. The maintenance culture media is aspirated from the cells and the final transfection mixture is added before the cells are incubated overnight at 37° C. in a humidified 5% CO2 atmosphere. This protocol can be scaled up, and the transiently transfected cells can be cryopreserved in an assay-ready format.
For compound testing, 100 nL of the compounds (serial dilutions in DMSO) are dispensed with an Echo acoustic dispenser (Labcyte) into the wells of a Corning/Costar clear bottom 384-well white plate. The transfected cells are harvested, counted, and diluted such that 10-25,000 cells in 25 μL are plated into each well of the 384-well compound assay plate. The compound-treated cells are incubated overnight at 37° C. in a humidified 5% CO2 atmosphere. The next morning 25 μL of Steady-Glo (Promega) are added to each well of the plate, the mixture is incubated for 15 min. with shaking, and luminescence is measured on an Envision (Perkin Elmer) plate reader. Background counts from cells treated with DMSO alone are subtracted from all raw counts, and the corrected values are converted to a percentage of the control response attained with 8 μM GW-4064.

In order of falling EC50:
1. O=C(O)c1cccc(CN2CCC3(CC2)CC(=Cc2c(-c4c(Cl)cccc4Cl)noc2C2CC2)C3)c1 [Example 9, 3-((2-((5-Cyclopropyl-3-(2,6-dichlorophenyl)isoxazol-4-yl)methylene)-7-azaspiro[3.5]nonan-7-yl)methyl)benzoic acid]  959 nM
2. O=C(O)c1cc(F)c2nc(N3CCC4(CC3)CC(=Cc3c(-c5c(Cl)cccc5Cl)cnn3C3CC3)C4)sc2c1 [Example 8, 2-(2-((1-Cyclopropyl-4-(2,6-dichlorophenyl)-1H-pyrazol-5-yl)methylene)-7-azaspiro[3.5]nonan-7-yl)-4-fluorobenzo[d]thiazole-6-carboxylic acid]  422 nM
3. O=C(O)c1cc(F)c2nc(N3CCC4(CC3)CC(=Cc3c(C5CC5)nnn3-c3c(Cl)cccc3Cl)C4)sc2c1 [Example 6, 2-(2-((4-Cyclopropyl-1-(2,6-dichlorophenyl)-1H-1,2,3-triazol-5-yl)methylene)-7-azaspiro[3.5]nonan-7-yl)-4-fluorobenzo[d]thiazole-6-carboxylic acid]  402 nM
4. Cc1cccc(Cl)c1-c1noc(C2CC2)c1C=C1CC2(CCN(S(=O)(=O)c3ccc(C(=O)O)cc3)CC2)C1 [Example 10, 4-((2-((3-(2-Chloro-6-methylphenyl)-5-cyclopropylisoxazol-4-yl)methylene)-7-azaspiro[3.5]nonan-7-yl)sulfonyl)benzoic acid]  321 nM
5. O=C(O)c1cc(F)c2nc(N3CCC4(CC3)CC(=Cc3c(C5CC5)cnn3-c3c(Cl)cccc3Cl)C4)sc2c1 [Example 7, 2-(2-((4-Cyclopropyl-1-(2,6-dichlorophenyl)-1H-pyrazol-5-yl)methylene)-7-azaspiro[3.5]nonan-7-yl)-4-fluorobenzo[d]thiazole-6-carboxylic acid]  201 nM
6. O=C(O)c1cc(F)c2nc(N3CCC4(CC3)CC(Cc3c(-c5ccccc5C(F)(F)F)noc3C3CC3)C4)sc2c1 [Example 3, 2-(2-((5-Cyclopropyl-3-(2-(trifluoromethyl)phenyl)isoxazol-4-yl)methyl)-7-azaspiro[3.5]nonan-7-yl)-4-fluorobenzo[d]thiazole-6-carboxylic acid]  85 nM
7. O=C(O)c1cc(F)c2nc(N3CCC4(CC3)CC(Nc3c(-c5c(Cl)cccc5Cl)noc3C3CC3)C4)sc2c1 [Example 5, 2-(2-((5-Cyclopropyl-3-(2,6-dichlorophenyl)isoxazol-4-yl)amino)-7-azaspiro[3.5]nonan-7-yl)-4-fluorobenzo[d]thiazole-6-carboxylic acid]  60 nM
8. O=C(O)c1ccc2cc(N3CCC4(CC3)CC(=Cc3c(-c5c(Cl)cccc5Cl)noc3C3CC3)C4)ccc2n1 [Example 2, 6-(2-((5-Cyclopropyl-3-(2,6-dichlorophenyl)isoxazol-4-yl)methylene)-7-azaspiro[3.5]nonan-7-yl)quinoline-2-carboxylic acid]  47 nM
9. O=C(O)c1cc(F)c2nc(N3CCC4(CC3)CC(=Cc3c(-c5c(Cl)cccc5Cl)noc3C3CC3)C4)sc2c1 [Example 1, 2-(2-((5-Cyclopropyl-3-(2,6-dichlorophenyl)isoxazol-4-yl)methylene)-7-azaspiro[3.5]nonan-7-yl)-4-fluorobenzo[d]thiazole-6-carboxylic acid]  41 nM

same assay, conditions: Gal4-hFXR reporter in HEK293 cells; relative to 8 μM GW-4064; read-out: FXR EC50

In order of falling EC50:
1. O=C(O)c1ccc(N2CCC3(CC2)CC(=Cc2c(C4CC4)nnn2-c2c(Cl)cccc2Cl)C3)nc1 [Example 21]  5280 nM
2. O=C(O)c1ccc(N2CCC3(CC2)CC(=Cc2c(C4CC4)cnn2-c2c(Cl)cccc2Cl)C3)nc1 [Example 22]  4700 nM
3. O=C(O)c1ccc(N2CCC3(CC2)CC(=Cc2c(-c4c(Cl)cccc4Cl)cnn2C2CC2)C3)nc1 [Example 23]  4640 nM
4. O=C(O)c1cccc(N2CCC3(CC2)CC(Cc2c(-c4c(Cl)cccc4Cl)noc2C2CC2)C3)n1 [Example 12]  2190 nM
5. O=C(O)c1ccc(N2CCC3(CC2)CC(Nc2c(-c4c(Cl)cccc4Cl)noc2C2CC2)C3)nn1 [Example 15]  1820 nM
6. O=C(O)c1cccc(N2CCC3(CC2)CC(Nc2c(-c4c(Cl)cccc4Cl)noc2C2CC2)C3)n1 [Example 14]  1570 nM
7. O=C(O)c1cc2ccc(N3CCC4(CC3)CC(=Cc3c(-c5ccccc5C(F)(F)F)noc3C3CC3)C4)cc2cn1 [Example 37]  1410 nM
8. O=C(O)c1cc2ccc(N3CCC4(CC3)CC(Cc3c(-c5ccccc5C(F)(F)F)noc3C3CC3)C4)cc2nn1 [Example 34]  1350 nM
9. O=C(O)c1ccc(N2CCC3(CC2)CC(Nc2c(-c4c(Cl)cccc4Cl)noc2C2CC2)C3)nc1 [Example 13]  1220 nM
10. O=C(O)c1cc2ccc(N3CCC4(CC3)CC(Cc3c(-c5ccccc5C(F)(F)F)noc3C3CC3)C4)cc2cn1 [Example 35]  960 nM
11. O=C(O)c1cc2ccc(N3CCC4(CC3)CC(=Cc3c(-c5ccccc5C(F)(F)F)noc3C3CC3)C4)cc2nn1 [Example 36]  878 nM
12. O=C(O)c1cc(F)c2nc(N3C4CCC3CC3(CC(Nc5c(-c6c(Cl)cccc6Cl)noc5C5CC5)C3)C4)sc2c1 (stereo not shown) [Example 16]  514 nM
13. O=C(O)c1cc(F)c2nc(N3CCC4(CC3)CC(=Cc3c(-c5ccccc5OC(F)(F)F)noc3C3CC3)C4)sc2c1 [Example 26]  352 nM
14. Cn1cc(C(=O)O)c2cnc(N3CCC4(CC3)CC(Nc3c(-c5c(Cl)cccc5Cl)noc3C3CC3)C4)nc21 [Example 19]  305 nM
15. Cc1cc(C(=O)O)cc2sc(N3CCC4(CC3)CC(=Cc3c(C5CC5)nnn3-c3c(Cl)cccc3Cl)C4)nc12 [Example 20]  252 nM
16. O=C(O)c1ccc2cc(N3CCC4(CC3)CC(Cc3c(-c5ccccc5C(F)(F)F)noc3C3CC3)C4)ccc2n1 [Example 32]  243 nM
17. Cn1cc(C(=O)O)c2ccc(N3CCC4(CC3)CC(=Cc3c(-c5ccccc5OC(F)(F)F)noc3C3CC3)C4)nc21 [Example 28]  229 nM
18. O=C(O)C1(c2ccc(N3CCC4(CC3)CC(=Cc3c(-c5c(Cl)cccc5Cl)noc3C3CC3)C4)cc2)CCC1 [Example 42]  210 nM
19. O=C(O)c1cc(F)c2nc(N3CCC4(CC3)CC(=Cc3c(-c5ccccc5C(F)(F)F)noc3C3CC3)C4)sc2c1 [Example 31]  173 nM
20. O=C(O)c1ccc2cc(N3CCC4(CC3)CC(=Cc3c(-c5ccccc5C(F)(F)F)noc3C3CC3)C4)ccc2n1 [Example 29]  172 nM
21. O=C(O)c1cc(F)c2nc(N3CCC4(CC3)CC(Nc3c(-c5ccccc5OC(F)(F)F)noc3C3CC3)C4)sc2c1 [Example 18]  77 nM
22. O=C(O)c1ccc2cc(N3CCC4(CC3)CC(Cc3c(-c5c(Cl)cccc5Cl)noc3C3CC3)C4)ccc2n1 [Example 40]  51 nM
23. O=C(O)c1cc(F)c2nc(N3CCC4(CC3)CC(Cc3c(-c5c(Cl)cccc5Cl)noc3C3CC3)C4)sc2c1 [Example 11]  44 nM
24. Cn1cc(C(=O)O)c2ccc(N3CCC4(CC3)CC(Cc3c(-c5ccccc5C(F)(F)F)noc3C3CC3)C4)cc21 [Example 38]  28 nM
25. O=C(O)c1cc(C(F)(F)F)c2cc(N3CCC4(CC3)CC(=Cc3c(-c5ccccc5OC(F)(F)F)noc3C3CC3)C4)ccc2n1 [Example 25]  23 nM
26. Cn1cc(C(=O)O)c2ccc(N3CCC4(CC3)CC(=Cc3c(-c5ccccc5OC(F)(F)F)noc3C3CC3)C4)cc21 [Example 27]  21 nM
27. O=C(O)c1cc(C(F)(F)F)c2cc(N3CCC4(CC3)CC(Cc3c(-c5c(Cl)cccc5Cl)noc3C3CC3)C4)ccc2n1 [Example 41]  13 nM
28. O=C(O)c1cc(C(F)(F)F)c2cc(N3CCC4(CC3)CC(=Cc3c(-c5ccccc5C(F)(F)F)noc3C3CC3)C4)ccc2n1 [Example 30]  12 nM
29. Cn1cc(C(=O)O)c2ccc(N3CCC4(CC3)CC(=Cc3c(-c5c(Cl)cccc5Cl)noc3C3CC3)C4)cc21 [Example 24]  9 nM
30. O=C(O)c1nc(C(F)(F)F)n2cc(N3CCC4(CC3)CC(=Cc3c(-c5ccccc5C(F)(F)F)noc3C3CC3)C4)ccc12 [Example 33]  6 nM
31. Cn1cc(C(=O)O)c2ccc(N3CCC4(CC3)CC(=Cc3c(-c5ccccc5C(F)(F)F)noc3C3CC3)C4)cc21 [Example 39]  4 nM
